Laboratory results from paper PMC11367390 (RSC Advances, 2024).

Target: α-Glucosidase from Saccharomyces cerevisiae (Saccharomyces cerevisiae, UniProt P53341)
Assay: In vitro α-glucosidase inhibition study
Details: for IC50: IC50, μM, average value ± standard deviation, p-nitrophenyl α-D-glucoside substrate, pH 6.8, 37 °C; for inhibition at 25 µM: pH 6.8, read-out: Inhibition at 25 μM (%)

Chain of α-Glucosidase from Saccharomyces cerevisiae (P53341 whole entry): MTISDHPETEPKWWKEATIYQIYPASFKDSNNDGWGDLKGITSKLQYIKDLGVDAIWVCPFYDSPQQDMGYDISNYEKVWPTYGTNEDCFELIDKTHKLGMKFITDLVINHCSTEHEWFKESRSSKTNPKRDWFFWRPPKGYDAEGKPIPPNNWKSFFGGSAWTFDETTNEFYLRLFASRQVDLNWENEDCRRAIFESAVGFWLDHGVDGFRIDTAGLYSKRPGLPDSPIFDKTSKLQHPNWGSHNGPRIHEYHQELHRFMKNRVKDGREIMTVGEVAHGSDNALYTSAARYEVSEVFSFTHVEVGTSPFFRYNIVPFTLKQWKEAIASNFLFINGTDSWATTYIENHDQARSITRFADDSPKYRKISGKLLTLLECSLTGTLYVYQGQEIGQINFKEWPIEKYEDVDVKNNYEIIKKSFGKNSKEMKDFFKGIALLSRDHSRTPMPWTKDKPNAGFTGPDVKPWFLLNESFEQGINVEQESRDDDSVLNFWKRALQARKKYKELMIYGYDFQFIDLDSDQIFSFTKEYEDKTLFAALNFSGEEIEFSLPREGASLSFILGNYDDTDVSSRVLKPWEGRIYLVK

Structure (SMILES) | IC50 [µM] | inhibition at 25 µM [%]
O=c1c(-c2ccc(O)cc2)coc2c(Cn3ccnc3)c(O)ccc12 [Compound 9d] | 27 ± 0.2 | 42
Cc1cc(=O)oc2c(Cn3cnc4ccccc43)c(O)ccc12 [Compound 10b] | 21.1 ± 0.7 | 69.3
Cc1cc(C)n(Cc2c(O)ccc3c(=O)c(-c4ccc(OC(F)(F)F)cc4)coc23)n1 [Compound 12i] | 5.8 ± 0.2 | 94
Cc1cc(C)n(Cc2c(O)ccc3c(=O)c(-c4ccc(O)cc4)coc23)n1 [Compound 12c] | 27.4 ± 1.9 | 42.8
COc1ccc(-c2c(C)oc3c(Cn4cnc5ccccc54)c(O)ccc3c2=O)cc1 [Compound 10f] | 25.5 ± 7.9 | 48.6
COc1ccc(-c2coc3c(Cn4nc(C)cc4C)c(O)ccc3c2=O)cc1 [Compound 12d] | 20.9 ± 2.5 | 67.3
COc1ccc(-c2coc3c(Cn4cnc5ccccc54)c(O)ccc3c2=O)cc1 [Compound 10d] | 20.6 ± 2.1 | 64.6
Cc1cc(=O)oc2c(Cn3ccnc3)c(O)ccc12 [Compound 9b] | 23.6 ± 1.8 | 53.4
COc1ccc(-c2coc3c(Cn4cc5ccccc5n4)c(O)ccc3c2=O)cc1 [Compound 14b] | 23.9 ± 2.3 | 50.3
O=c1c(-c2ccc(OC(F)(F)F)cc2)coc2c(Cn3cnc4ccccc43)c(O)ccc12 [Compound 10h] | 9.5 ± 1.6 | 99.1
COc1ccc(-c2coc3c(Cn4ncc5ccccc54)c(O)ccc3c2=O)cc1 [Compound 13b] | 17.1 ± 2.8 | 73
O=c1c(-c2ccc(OC(F)(F)F)cc2)coc2cc(O)ccc12 [Compound 6j, 7-hydroxy-4′-trifluoromethoxyisoflavone] |  | 39
O=c1c(-c2ccc(OC(F)(F)F)cc2)coc2c(Cn3cccn3)c(O)ccc12 [Compound 11j] | 14.3 ± 2 | 84.1
